In patent publication US20040241754A1, “Modulating neuronal plasticity” (The Salk Institute for Biological Studies, priority 2003, published 2004):
“Also recorded” adds a separate entry of the source. Square brackets hold non-standard residues; d marks the D form. Ends that are not written are not given here. pS = N[C@@H](COP(=O)(O)O)C(=O)O

Legend:
GRIP PDZ4-6 = target: T1, GRIP PDZ4-6 (Rattus norvegicus, UniProt P97879); assay: Competitive binding of 35S-EphB2 to His-GRIP-PDZ4-6; conditions: for displacement of labeled EphB2 from GRIP PDZ4-6: concentrations of up to 10 μM peptide
T1 construct: corresponding to GRIP1 (amino acid 448-792); made in house; host or cells: E. coli BL21
T1 sequence (P97879 448-792): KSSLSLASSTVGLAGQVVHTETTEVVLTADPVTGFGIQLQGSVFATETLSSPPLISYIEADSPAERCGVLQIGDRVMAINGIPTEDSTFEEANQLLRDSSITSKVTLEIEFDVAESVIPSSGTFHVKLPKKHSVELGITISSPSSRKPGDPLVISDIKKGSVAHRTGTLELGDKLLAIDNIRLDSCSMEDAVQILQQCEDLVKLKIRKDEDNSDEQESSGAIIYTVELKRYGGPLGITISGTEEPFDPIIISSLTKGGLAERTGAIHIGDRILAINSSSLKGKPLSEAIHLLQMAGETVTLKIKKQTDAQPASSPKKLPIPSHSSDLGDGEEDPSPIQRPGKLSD
Description: A competitive binding assay was prepared to determine if the LTP inhibitory effects of the GluR2ct peptide were mediated through disruption of binding between Eph receptors and PDZ domain 6 of GRIP (Torres et al., Neuron 21, 1453-63. (1998)) as opposed to disruption of binding between the GluR2 subunit and the GluR2-binding PDZ 4 and 5 domains of GRIP (Dong et al., Nature 386, 279-84. (1997)). For this purpose, a binding assay was established between GRIP PDZ domain fragments (His-GRIP-PDZ4-6) and an EphB2 carboxy terminal fusion protein labeled with ^35S-methionine (^35S-EphB2).
Briefly, the carboxy terminal region of EphB2 corresponding to mouse EphB2 receptor (amino acid 930-993) was generated by PCR from mouse brain library and subcloned into pGEX2TK (Pharmacia). The GRIP(PDZ4-6) construct, corresponding to GRIP1 (amino acid 448-792) was obtained by PCR from an adult rat hippocampal library and subcloned into pRSET vector. E coli (strain BL21) were transformed with His-GRIP(PDZ4-6) and GST-EphB2 and protein production induced with IPTG. GST-EphB2 protein was purified on glutathionine beads and ^35S-EphB2 cleaved from GST with thrombin (1 U/μg). GRIP(PDZ4-6) protein was purified on Ni-NTA agarose, and eluted with imadazole. ^35S-EphB2 (50 nM) was incubated with (15 μg) of His-GRIP(PDZ4-6) protein in PBS buffer with protease inhibitors for 2 hrs at 22° C. in the absence or presence of peptides. ^35S-EphB2 binding to His-GRIP(PDZ4-6) was determined after a 45 min incubation with Ni-NTA agarose and vacuum filtration onto Whatman GFB filter circles (pretreated with 3% BSA). Filters were washed with ice-cold PBS buffer, allowed to equilibrate overnight in ECOLUME scintillation cocktail (ICN pharmaceuticals, Irvine Calif.), and specific counts measured in a scintillation counter. Non-specific binding was defined as the residual binding measured in the absence of His-GRIP(PDZ4-6).

[1] = system: mossy fiber synapses of hippocampal CA3 pyramidal neurons; assay: Forskolin-mediated potentiation of mossy fiber EPSCs; type: cell-based, mice; conditions: EphB2 peptide in recording electrode
[2] = system: mossy fiber synapses of hippocampal CA3 pyramidal neurons; assay: Mossy fiber LTP, whole-cell patch clamp in hippocampal slices; type: cell-based, mice; conditions: for LTP (potentiation of the EPSC after tetanic stimulation): peptide 50 μM in patch electrode (postsynaptic), 25 to 30 minutes after tetanic stimulation; for LTP PPR (paired pulse ratio after LTP induction) / control PPR (paired pulse ratio before LTP induction): 40 ms interval
Description: The role of the GluR2 subunit in LTP at mossy fiber terminals was evaluated in whole cell patch clamp experiments using hippocampal CA3 pyramidal neurons. Briefly, transverse hippocampal slices (350 μm) were made from P12-18 mice (strain 129SvEv) as previously described (Contractor et al., Neuron 29, 209-16. (2001)). Slices were transferred to a recording chamber, and whole-cell patch clamp recordings made from visually identified pyramidal cells in the CA3 region of the hippocampus. The recording electrode (i.e., patch electrode) is filled with an “internal” solution described below. A seal between the glass of the electrode and the membrane of the cell is made. The seal is then “broken through” by pushing the electrode through the membrane to gain low resistance access to the cell interior and enable voltage clamping of the cell membrane. This also allows dialysis of the cell with test reagents such as peptides and antibodies. A stimulating electrode is attached to a current source and allows current to stimulate action potentials while a reference electrode is placed in the recording bath. The composition of the internal solution was: 95 mM CsF, 25 mM CsCl, 10 mM Cs-HEPES, 10 mM Cs-EGTA, 2 mM NaCl, 2 mM Mg-ATP, 10 mM QX-314, 5 mM TEA-Cl, 5 mM 4-AP, pH adjusted to 7.3 with CsOH.
Peptides were added directly to the internal solution on the day of the experiment from frozen stocks in protease inhibitors made up in phosphate buffered saline (PBS). To avoid leakage of peptides or antibodies into the extracellular space, pipette tips were filled with normal internal solution and then the pipette was backfilled with peptide/antibody containing internal fluid. The final concentration of peptides was 50 μM in all experiments. The final concentration of protease inhibitors were: bestatin 2 μg/ml, leupeptin 25 ng/ml, pepstatin 35 ng/ml, aprotinin 100 ng/ml.
In control experiments where peptides were not included, internal solutions were made up in exactly the same way with protease inhibitors in PBS but lacking any added peptide. Antibodies were made up in PBS stock and added directly to the internal solution at a final concentration of 20 μg/ml. The pH and osmolarity of all internal solutions were checked before use. Series resistances (Rs) were generally <10M and were continuously monitored throughout the duration of the experiment. […] Experiments using mutant mice were performed with heterozygous breedings blind to the genotype of the animal.
Mossy fiber EPSCs were evoked with a monopolar glass electrode positioned in the stratum lucidum. EPSCs were evaluated using a 40 ms interval between recordings. All recordings were made in the continuous presence of bicuculline (10 μM), picrotoxin (50 μM) and the NMDA receptor antagonist D-AP5 [D(-)-2-Amino-5-phosphonopentanoic acid; 50 μM]. The group II mGluR agonist, LCCG-1 (10 μM), which selectively depresses mossy fiber transmission, was applied at the end of each experiment. LTP was induced by tetanic stimulation comprising three 1 s stimulations (100 Hz) with a 10 s interval. Data are presented as mean±SEM. Parameters were compared using the Student's unpaired t-test where not specified, and the K-S test, p<0.05 was considered significant.
Cumulative probability is determined by ranking the EPSC data set from the highest to the lowest value from 20 to 30 minutes post tetanization. Each point is graphed with its corresponding percentile. […] The lowest LTP value was about 40% signified by the lowest point on the 1 st graph (open circles) and the largest LTP was about 160%.

EphA8 = target: T2, EphA8 (Mus musculus, UniProt O09127); conditions: read-out: Kd for binding to EphA8; cited from earlier work
T2 sequence (O09127 27-1004): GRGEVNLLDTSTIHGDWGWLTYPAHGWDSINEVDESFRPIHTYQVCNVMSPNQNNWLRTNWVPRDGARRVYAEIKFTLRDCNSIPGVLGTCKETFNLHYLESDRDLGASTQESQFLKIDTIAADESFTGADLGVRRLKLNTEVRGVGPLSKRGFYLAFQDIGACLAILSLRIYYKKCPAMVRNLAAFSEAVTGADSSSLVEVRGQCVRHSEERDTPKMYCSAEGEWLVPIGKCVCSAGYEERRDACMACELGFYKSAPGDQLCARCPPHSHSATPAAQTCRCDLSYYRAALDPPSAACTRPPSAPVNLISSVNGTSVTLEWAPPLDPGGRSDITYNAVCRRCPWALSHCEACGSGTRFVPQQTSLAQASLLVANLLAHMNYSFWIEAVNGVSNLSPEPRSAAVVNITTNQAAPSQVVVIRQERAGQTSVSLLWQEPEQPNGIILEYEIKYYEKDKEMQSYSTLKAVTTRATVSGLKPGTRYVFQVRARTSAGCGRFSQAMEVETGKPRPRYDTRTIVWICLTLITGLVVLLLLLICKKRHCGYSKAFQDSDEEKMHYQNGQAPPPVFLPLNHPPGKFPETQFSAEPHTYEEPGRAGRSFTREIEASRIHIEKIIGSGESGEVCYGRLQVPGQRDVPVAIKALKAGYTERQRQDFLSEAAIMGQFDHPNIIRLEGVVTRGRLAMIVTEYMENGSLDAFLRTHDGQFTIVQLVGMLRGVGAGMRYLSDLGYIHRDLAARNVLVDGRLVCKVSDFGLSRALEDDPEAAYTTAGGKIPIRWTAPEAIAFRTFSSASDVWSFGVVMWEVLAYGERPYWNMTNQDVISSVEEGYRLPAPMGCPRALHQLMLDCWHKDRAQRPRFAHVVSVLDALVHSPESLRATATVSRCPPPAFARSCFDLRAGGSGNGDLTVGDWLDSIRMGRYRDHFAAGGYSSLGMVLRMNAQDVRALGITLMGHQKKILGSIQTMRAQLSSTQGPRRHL

[3] = target: postsynaptic EphB receptors; assay: cell-based or functional assay
[4] = peptide 50 μM in patch electrode
[5] = peptide in patch electrode (postsynaptic)
[6] = peptide in patch electrode, 20 to 30 minutes post tetanization

With “QMNQIQSVEV [EphB2 peptide, Gln-Met-Asn-Gln-Ile-Gln-Ser-Val-Glu-Val]” the Ki (GRIP PDZ4-6; 35S-EphB2 50 nM, fitted to the Hill equation, read-out: Ki, displacement of 35S-EphB2 binding to His-GRIP-PDZ 4-6) was 43 nM, the “forskolin-mediated potentiation with peptide in the recording electrode” value [1] was 209±20% and the “LTP (potentiation of the EPSC after tetanic stimulation)” value [2] was 125±15%. The “LTP PPR (paired pulse ratio after LTP induction)” value [2, 4] was 2.5±0.27, the “control PPR (paired pulse ratio before LTP induction)” value [2, 4] was 2.5±0.22 and the “PTP (post-tetanic potentiation)” value ([2]; peptide 50 μM in patch electrode, immediately following tetanic stimulation) was 500±76%. The “effect on PTP” value [2, 5] was “significantly impaired; also recorded: significantly depressed”, the “effect on tetanus induced LTP” value [2, 5] was “significantly impaired; also recorded: inhibit mossy fiber hippocampal CA3 neuronal LTP; also recorded: significantly depressed” and the “largest LTP of single recordings (cumulative probability, FIG. 5)” value [2, 6] was “about 160%”. The “lowest LTP value of single recordings (cumulative probability, FIG. 5)” value [2, 6] was “about 40%”.

In the case of “R2ctPO4: phosphorylated GluR2/3 peptide; same as SEQ ID NO: 1 except the serine is phosphorylated (NVYGIE[pS]VKI) [reference compound]”, the “displacement of labeled EphB2 from GRIP PDZ4-6” value (GRIP PDZ4-6; listed as GluR2ctPO4) is reported as “unable to displace binding; also recorded: do not inhibit binding of EphB2 to GRIP”, the “LTP (potentiation of the EPSC after tetanic stimulation)” value [2] is reported as 210±19% and the “LTP PPR (paired pulse ratio after LTP induction)” value [2, 4] is reported as 2.5±0.16. The “control PPR (paired pulse ratio before LTP induction)” value [2, 4] was 3.0±0.18, the “effect on tetanus induced LTP” value [2, 5] was “little effect on induction of LTP” and the “effect on tetanus induced LTP” value ([2]; peptide in patch electrode (postsynaptic), listed as GluR2ctPO4) was “do not inhibit LTP”.

For NVIYVKSEIG [R2ctSC, reference compound], the “displacement of labeled EphB2 from GRIP PDZ4-6” value (GRIP PDZ4-6; listed as GluR2ctSC) was “unable to displace binding; also recorded: do not inhibit binding of EphB2 to GRIP”, the “LTP (potentiation of the EPSC after tetanic stimulation)” value [2] was 200±11% and the “LTP PPR (paired pulse ratio after LTP induction)” value [2, 4] was 2.4±0.10. For the same molecule, the “control PPR (paired pulse ratio before LTP induction)” value [2, 4] was 3.1±0.19, the “effect on basal synaptic transmission / basal EPSC amplitudes” value ([2]; peptide in patch electrode) was “stable” and the “effect on tetanus induced LTP” value [2, 5] was “little effect on induction of LTP”. The “effect on tetanus induced LTP” value ([2]; peptide in patch electrode (postsynaptic), listed as GluR2ctSC) was “do not inhibit LTP”.

B1: ephrin-A5: a 28 kDa, 228 amino acid glycoprotein; ephrin ligand (protein, UniProt P52803 1-228, looked up)
chain: MLHVEMLTLVFLVLWMCVFSQDPGSKAVADRYAVYWNSSNPRFQRGDYHIDVCINDYLDVFCPHYEDSVPEDKTERYVLYMVNFDGYSACDHTSKGFKRWECNRPHSPNGPLKFSEKFQLFTPFSLGFEFRPGREYFYISSAIPDNGRRSCLKLKVFVRPTNSCMKTIGVHDRVFDVNDKVENSLEPADDTVHESAEPSRGENAAQTPRIPSRLLAILLFLLAMLLTL
modifications: full-length
notes: a 28 kDa, 228 amino acid glycoprotein; ephrin ligand
In the case of B1, the Kd (EphA8) is given as 0.5 nM.

B2: ephrin-B1-Fc fusion protein (Fc fusion, mouse, not shown: a dimerising Fc or GST)
chain (part 1 of 2): ATPLAKNLEPVSWSSLNPKFLSGKGLVIYPKIGDKLDIICPRAEAGRPYEYYKLYLVRPEQAAACSTVLDPNVLVTCNKPHQEIRFTIKFQEFSPNYMGLEFKKYHDYYITSTSNGSLEGLENREGGVCRTRTMKIVMKVGQDPNAVTPEQLTTSRPSKESDNTVKTATQAPGRGSQGDSDGKHETVNQEEKSGPGAGGGGSGDSIEGRMD
chain (part 2 of 2): HHHHH
In the case of B2, the LTP after tetanus in the presence of ephrinB1-Fc (5 µg/ml) [3] is reported as 139%, the forskolin potentiation of mossy fiber EPSCs after pre-application of ephrin-B1-Fc [3] is reported as 219% and the post-tetanic potentiation [3] is reported as 430%.
